Source: US6867316B2, “Platinum(II) complexes of N-substituted amino dicarboxylates and the preparation method thereof” (Board of Trustees, Ewha Womans University, priority 2003, dated 2005)

Columns and labels:
leukemia L1210 cell line [1] = test: Antitumor activity bioassay against leukemia L1210, T/C (%) at given dosage; assay type: in vivo
leukemia L1210 cell line [2] = test: Antitumor activity bioassay against leukemia L1210 cell line (IC50); assay type: cell-based
Protocol: Antitumor activities of the platinum complexes prepared in the above Examples 1 to 9 were assayed against the leukemia L1210 cell line according to the known method (S. S. Lee, O.-S. Jung, C. O. Lee, S. U. Choi, M.-J. Jun, Y. S. Sohn, Inorg. Chim. Acta, 239, 133 (1995)), and the results are shown in Table 1.

Compound	T/C (%) (leukemia L1210 cell line [1]; dosage amount 20 mg/kg)	T/C (%) (leukemia L1210 cell line [1]; dosage amount 40 mg/kg)	IC50 (leukemia L1210 cell line [2]) [µM]	T/C (%) (leukemia L1210 cell line [1]; dosage amount 4 mg/kg)
N[C@@H]1CCCC[C@H]1N.O=C([O-])C[C@H](NC(=O)OCc1ccccc1)C(=O)[O-].[Pt+2] (racemic) [Pt(dach)(CbzAsp), (N-carbobenzyloxy-L-aspartato-O,O)(trans-(±)-1,2-diamino-cyclohexane-N,N)platinum(II)]	175.0	193.8%	26.5	–
CC(C)(C)C(=O)N[C@@H](CCC(=O)[O-])C(=O)[O-].N[C@@H]1CCCC[C@H]1N.[Pt+2] (racemic) [Pt(dach)(PivGlu), (N-pivalyl-L-glutamato-O,O)(trans-(±)-1,2-diaminocyclo-hexane-N,N)platinum(II)]	211.3	212.5%	2.23	–
(N-acetyl-L-aspartato-O,O)(trans-(±)-1,2-diaminocyclo-hexane-N,N)platinum(II) [Pt(dach)(AcAsp)]	179.6	225.0%	3.73	–
N[C@@H]1CCCC[C@H]1N.O=C([O-])CC[C@H](NC(=O)OCc1ccccc1)C(=O)[O-].[Pt+2] (racemic) [Pt(dach)(CbzGlu), (N-carbobenzyloxy-L-glutamato-O,O)(trans-(±)-1,2-diaminocyclohexane-N,N)platinum(II)]	170.0	207.5%	65.1	–
CCC(=O)N[C@@H](CCC(=O)[O-])C(=O)[O-].N[C@@H]1CCCC[C@H]1N.[Pt+2] (racemic) [Pt(dach)(ProGlu), (N-propionyl-L-glutamato-O,O)(trans-(±)-1,2-diaminocyclo-exane-N,N)platinum(II)]	212.5	228.8%	2.94	–
N[C@@H]1CCCC[C@H]1N.O=C([O-])CC[C@@H](C(=O)[O-])N1C(=O)c2ccccc2C1=O.[Pt+2] (racemic) [Pt(dach)(PhthGlu), (N-phthaloyl-L-glutamato-O,O)(trans-(±)-1,2-diaminocyclo-hexane-N,N)platinum(II)]	177.3	221.6%	34.9	–
CC(=O)N[C@@H](CCC(=O)[O-])C(=O)[O-].N[C@@H]1CCCC[C@H]1N.[Pt+2] (racemic) [Pt(dach)(AcGlu), (N-acetyl-L-glutamato-O,O)(trans-(±)-1,2-diaminocyclo-hexane-N,N)platinum(II) complex]	227.3	190.9%	4.63	–
CC(=O)N[C@@H](CC(=O)[O-])C(=O)[O-].CC(C)(CN)CN.[Pt+2] [Pt(dmpda)(AcAsp), (N-acetyl-L-aspartato-O,O)(2,2-dimethyl-1,3-propane-diamine-N,N)platinum(II)]	146.2	160.4%	3.19	–
N.N.[Cl][Pt][Cl] [Cisplatin, reference compound]	–	–	1	184/4%
N.N.O=C([O-])C1(C(=O)[O-])CCC1.[Pt+2] [Carboplatin, reference compound]	–	168/40%	10.2	–
Cc1ccc(S(=O)(=O)N[C@@H](CCC(=O)[O-])C(=O)[O-])cc1.N[C@@H]1CCCC[C@H]1N.[Pt+2] (racemic) [Pt(dach)(TsGlu), (N-tosyl-L-glutamato-O,O)(trans-(±)-1,2-diaminocyclo-hexane-N,N)platinum(II)]	176.3	191.3%	17.6	–
